{"source": "patent US20070292951A1", "about": "“MEDIA AND METHODS FOR CULTURING PLANT EMBRYOS” (priority 1997, published 2007)", "key": {"[1]": {"tested_on": "Brassica napus microspores", "experiment": "Microspore embryogenesis in liquid half-strength NLN medium with different osmotica", "type": "cell-based, Brassica napus L. cv. Topas", "conditions": "for Induction of MD embryos: within two weeks, 13% sucrose, 8% mannitol or 25% PEG 4000 (w/v), mannitol and PEG media with about 0.08%-0.1% sucrose", "method": "A mixed population consisting of microspores from mid- and late-uninucleate stages to young bicellular pollen was isolated from the flower buds using a protocol modified from that described by Ferrie and Keller, in: Gamborg and Phillips (eds) Plant Cell, Tissue and Organ Culture, Fundamental methods, pp 155-164, 1993 (Springer Verlag). For each treatment, twelve surface-sterilized buds (3.6-4.2 mm in length) were macerated in 5 ml half-strength B5 washing medium (Gamborg et al., Exp. Cell Res. 50:151-158, 1968) containing 13% sucrose (w/v) in 50 ml beakers. The crude suspension was filtered through 44 μm Nytex nylon mesh, both beakers and meshes were rinsed, and a total of 20 ml was collected into 50 ml centrifuge tubes and centrifuged at 150×g for 3 minutes. The pellets were resuspended in 5 ml of washing medium, the washing procedure was repeated twice, and the final supernatant was carefully pipetted out, leaving the pellet in approximately 0.3-0.4 ml of washing medium. Final resuspension was done by adding filter-sterilized half-strength NLN medium (Lichter, Z. Pflanzenphysiol. 105:427-434, 1982) containing 13% (w/v) sucrose as the control treatment; in the other two treatments, ½ NLN sucrose-free medium with 8% (w/v) mannitol or 25% (w/v) PEG 4000 (Fluka Chemika) was added, respectively. Therefore, the ½ NLN-mannitol and -PEG media contained only about 0.08%-0.1% sucrose, remaining from the washing medium.\nAliquots of […] of microspore suspension were plated into 10×15 mm sterile petri dishes, with an approximate plating density of 40,000 microspores/ml. Plates were first incubated at 35° C. for one hour followed by 33° C. for the next 14-18 hours and then placed on a shaker (50 rpm) in the dark at 24° C. for 14 days. During the first 8 days in culture, PEG and mannitol media were gradually diluted by adding to the plates an adequate volume of a simple ½ NLN medium, containing no sucrose. mannitol, or PEG, to give a final concentration of approximately 22% PEG and 7% mannitol. The concentration of sucrose in the control treatment was lowered the same way to a final concentration of 11%. After two weeks, plates with MD embryos were placed under light (16/8 hours photoperiod) at 24° C. for an additional week. Experiments dealing with mannitol as osmoticum were repeated three times with five replicates, while experiments dealing with PEG and sucrose as a control were repeated at least ten times with a minimum of three replicates.\nMicrospores at late unicellular stage and young bicellular pollen were isolated from the flower buds using a protocol for Brassica napus, modified from that described by Ferrie and Keller, in: Gamborg and Phillips (eds) Plant Cell, Tissue and Organ Culture, Fundamental methods, pp 155-164, 1993 (Springer Verlag). Twelve surface-sterilized buds (3.6-4.2 mm in length) were macerated in a 50 ml beaker with 5 ml half-strength B5 washing medium (Gamborg et al., Exp. Cell Res. 50:151-158, 1968) containing 13% sucrose (w/v). The crude suspension was filtered through 44 μm nylon mesh and centrifuged at 150×g for 3 minutes, and the pellet was resuspended in 5 ml of washing medium. The washing procedure was repeated twice, and the final supernatant was carefully pipetted out, leaving the pellet in approximately 0.3-0.4 ml of washing medium. Final resuspension was done by adding filter-sterilized half-strength NLN medium (Lichter, Z. Pflanzenphysiol 105:427-434, 1982) containing either 13% sucrose (w/v) as a control or 25% (w/v) polyethylene glycol 4000 (Fluka Chemika). Therefore, the final ½ NLN-PEG medium contained only about 0.08%-0.1% sucrose, remaining from the washing medium.\nAliquots of 10 ml of the microspore suspension were plated into 10×15 mm sterile petri dishes, with an approximate plating density of 40,000 microspores/ml. Plates were first incubated at 35° C. for one hour followed by 33° C. for the next 14-18 hours and then placed on a shaker (50 rpm) in the dark at 24° C. for 14 days. […]"}, "[2]": {"tested_on": "Brassica napus MD embryos", "experiment": "Conversion of three-week-old MD embryos into plantlets on hormone-free solid medium", "type": "cell-based", "conditions": "embryos grown on the named osmoticum", "method": "Plates containing the embryos may then be placed under light at 24° C. for an additional week. Once placed under light, the embryos generally increase in size and become green quickly. Within one week under light, cotyledons are typically well-developed, often widely opened and dark green, and the embryos are morphologically similar to zygotic embryos dissected from ovules (see FIGS. 2A-2C). The three-week embryos may then be rinsed and transferred to culture containers containing a suitable medium, such as half-strength B5 medium containing 1% sucrose and no growth regulators. The conversion frequency is the percentage of MD embryos that develop roots, true leaves and a green color within 3-4 weeks. Aliquots of 10 ml of the microspore suspension were plated into 10×15 mm sterile petri dishes, with an approximate plating density of 40,000 microspores/ml. Plates were first incubated at 35° C. for one hour followed by 33° C. for the next 14-18 hours and then placed on a shaker (50 rpm) in the dark at 24° C. for 14 days. […] Conversion frequency (%) of sucrose- and PEG-cultured MD embryos was recorded based on presence of roots, appearance of first true leaves and green color of plantlets, with three replicates for each treatment."}}, "data": [{"molecule": "OC[C@H]1O[C@@](CO)(O[C@H]2O[C@H](CO)[C@@H](O)[C@H](O)[C@H]2O)[C@@H](O)[C@@H]1O", "note": "[sucrose]", "values": [{"measurement": "Embryo length at heart-shaped stage", "setting": "[1]; SEM", "result": "approximately 300 μm"}, {"measurement": "Embryo length at torpedo stage", "setting": "[1]; SEM", "result": "≥ 400", "unit": "μm"}, {"measurement": "Proembryo size at globular-to-heart-shaped transition", "setting": "[1]; about day 8, SEM", "result": "150-250 μm"}, {"measurement": "Embryo length, cotyledonary stage", "setting": "[1]; after two weeks in culture", "result": "2-4 mm"}, {"measurement": "Starch grains and protein bodies in cotyledon stage embryos", "setting": "[1]; light microscopy", "result": "abundant starch grains with no protein bodies"}, {"measurement": "Morphology of three-week-old MD embryos compared with zygotic embryos (14 and 15 DPA)", "setting": "[1]; three weeks, last week under light", "result": "pale green, had elongated embryo axes and relatively small underdeveloped cotyledons"}, {"measurement": "Induction of MD embryos", "setting": "[1]", "result": "developed into embryos"}, {"measurement": "Plantlet morphology after transfer to solid medium", "setting": "[2]", "result": "hypocotyls were short, often thick (hyperhydrated) and aberrant"}]}, {"molecule": "OC[C@@H](O)[C@@H](O)[C@H](O)[C@H](O)CO", "note": "[mannitol]", "values": [{"measurement": "Cell divisions of microspores after heat shock treatment", "setting": "[1]; mannitol solution", "result": "no divisions were observed"}, {"measurement": "Induction of MD embryos", "setting": "[1]", "result": "yielded no embryos"}]}]}
